From patent publication US20030207813A1, “Retroviral protease inhibitor combinations” (priority 1995, published 2003)
Converted amounts (≈) assume the structure as drawn.

What was measured:
HIV-1RF = experiment: CEM-T4 cell infection assay, reverse transcriptase readout, isolate RF; type: cell-based; conditions: Human immunodeficiency virus 1, CEM-T4, 168 h, Table 4, CEM-T4 cells, 7 days, read-out: Virus Isolate (EC50 ng/mL) RF
Description: (§1) RF represents the HIV-1 strain HIV-LRF and RFR represents a mixture of resistant strains obtained by selection of RF against the compound of Example 1. RFR comprises a mixture of viral strains having protease genotypes of G48V (14/40 clones); G48V, V82A (18/40 clones); G48V, L90S (2/40 clones); G48V, 154T, V82A (1/40 clones); G48M (1/40 clones); G48V, Q61H (1/40 clones); V13I, G48V (1/40 clones); G48V, F53L, V82A (1/40 clones); and G48V, V82A, C95Y (1/40 clones). RFR2 represents a mixture of resistant strains obtained by cloning RFR by three rounds of growth at limiting dilution. RFR2 comprises a mixture of viral strains having protease genotypes of G48V, V82A (13/15 clones); G17E, G48V, V82A (1/15 clones); and G48V, V82A, N37D, N88D (1/15 clones). RFRR represents a mixture of resistant strains obtained by selection of RF against the compounds of Examples 1 and 2 and then cloning by three rounds of growth at limiting dilution. RFRR comprises a mixture of viral strains having protease genotypes of G48V, 154T, L63P, V82A (7/9 clones); G48V, 154T, L63P, V82A, N88S (1/9 clones); and G48V, 154T, L63P, G73M, V82A (1/9 clones). SF162 represents the HIV-1 strain SF-162 and SF162R represents a mixture of resistant strains obtained by selection of SF162 against the compound of Example 1. SF162R comprises a mixture of viral strains having protease genotypes of M461, F53L, L63P, A71V, N88D (2/3 clones); and M46I, F53L, L63P, A71V, N88D, Q92R (1/3 clones). 89-959 represents the HIV-1 strain 89-959 and 89-959R represents a mixture of resistant strains obtained by selection of 89-959 against the compound of Example 2. 89-959R comprises a mixture of viral strains having protease genotypes of N88S (4/5 clones); and D25N, T26A, D30N, D37N, R41K, G73D, R87K, N88S (1/4 clones). NL4 represents the HIV-1 strain HIV-1NL4-3. NL4(G48V) represents a strain having a synthetically generated site-directed mutation in the protease from glycine to valine at amino acid position number 48. NL4(I84V) represents a strain having a synthetically generated site-directed mutation in the protease from isoleucine to valine at amino acid position number 84. NL4(R8Q,M46I) represents a strain having synthetically generated site-directed mutations in the protease from arginine to glutamine at amino acid position number 8 and methionine to isoleucine at amino acid position number 46. NL4(P22-538) represents a mixture of resistant strains obtained by selection of HIV-1NL4-3 against the compound of Example 10 after 22 passages comprising protease genotypes M46I, L63P, A71V, V82F, I84V (4/10); M46I, L63P, V82F, I84V (3/10); and M46I, A71V, V82F, I84V (3/10). NL4(P37-538) represents resistant strains obtained by selection of HIV-1NL4-3 against the compound of Example 10 after 37 passages comprising protease genotype M46I, L63P, A71V, 184A. NL4(538/524) represents resistant strains obtained by selection of NL4(P22-538) against the compound of Example 5 after 24 passages comprising protease genotype M46I, L63P, A71V, 184A. NL4(538/P7-AG) represents a mixture of resistant strains obtained by selection of NL4(P22-538) against the compound of Example 12 after 7 passages comprising protease genotypes M46I, L63P, A71V, 184A; and V321, V82I. NL4(538/P24-AG) represents resistant strains obtained by selection of NL4(P22-538) against the compound of Example 12 after 24 passages comprising protease genotype M46I, L63P, A71V, 184A. NLA(P19-003) represents resistant strains obtained by selection of HIV-1^NL4-3 against the compound of Example 9 after 19 passages comprising protease genotype R8K, M46I. NL4(P34-003) represents resistant strains obtained by selection of HIV-1^NL4-3 against the compound of Example 9 after 34 passages comprising protease genotype R8K, M46I, L63P, A71V, L90M.
(§2) The viral isolate resistance results summarized in Tables 4-6 were generated according to the following assay procedure or minor modifications thereof. Assays are performed in 96-well tissue culture plates. […]

[1] = tested on: RFR (resistant strains selected from RF against Example 1); experiment: CEM-T4 cell infection assay, reverse transcriptase readout, resistant isolate RFR; type: cell-based, HIV-1; conditions: Human immunodeficiency virus 1, CEM-T4, 168 h, Table 4, CEM-T4 cells, 7 days, read-out: Virus Isolate (EC50 ng/mL) RFR
Description: as §1, §2

NL4(538/P24-AG) = experiment: Viral isolate resistance assay per Markowitz et al., NL4(538/P24-AG); type: cell-based, HIV-1; conditions: Human immunodeficiency virus 1; Table 10; NL4(P22-538) selected against Example 12, 24 passages
Description: as §1, with “NLA(P19-003) represents resistant strains obtained by selection of HIV-1^NL4-3 against the compound of Example 9 after 19 passages comprising protease genotype R8K, M46I. NL4(P34-003) represents resistant strains obtained by selection of HIV-1^NL4-3 against the compound of Example 9 after 34 passages comprising protease genotype R8K, M46I, L63P, A71V, L90M.” left out

NL4(538/524) = experiment: Viral isolate resistance assay per Markowitz et al., NL4(538/524); type: cell-based, HIV-1; conditions: Human immunodeficiency virus 1; Table 10; NL4(P22-538) selected against Example 5, 24 passages
Description: as §1, with “NLA(P19-003) represents resistant strains obtained by selection of HIV-1^NL4-3 against the compound of Example 9 after 19 passages comprising protease genotype R8K, M46I. NL4(P34-003) represents resistant strains obtained by selection of HIV-1^NL4-3 against the compound of Example 9 after 34 passages comprising protease genotype R8K, M46I, L63P, A71V, L90M.” left out

NLA(P19-003) = experiment: Viral isolate resistance assay per Markowitz et al., NLA(P19-003); type: cell-based, HIV-1; conditions: Human immunodeficiency virus 1, read-out: Virus Isolate (EC50 nM) NLA(P19-003)
Description: (§3) RF represents the HIV-1 strain HIV-LRF and RFR represents a mixture of resistant strains obtained by selection of RF against the compound of Example 1. RFR comprises a mixture of viral strains having protease genotypes of G48V (14/40 clones); G48V, V82A (18/40 clones); G48V, L90S (2/40 clones); G48V, 154T, V82A (1/40 clones); G48M (1/40 clones); G48V, Q61H (1/40 clones); V13I, G48V (1/40 clones); G48V, F53L, V82A (1/40 clones); and G48V, V82A, C95Y (1/40 clones). RFR2 represents a mixture of resistant strains obtained by cloning RFR by three rounds of growth at limiting dilution. RFR2 comprises a mixture of viral strains having protease genotypes of G48V, V82A (13/15 clones); G17E, G48V, V82A (1/15 clones); and G48V, V82A, N37D, N88D (1/15 clones). RFRR represents a mixture of resistant strains obtained by selection of RF against the compounds of Examples 1 and 2 and then cloning by three rounds of growth at limiting dilution. RFRR comprises a mixture of viral strains having protease genotypes of G48V, 154T, L63P, V82A (7/9 clones); G48V, 154T, L63P, V82A, N88S (1/9 clones); and G48V, 154T, L63P, G73M, V82A (1/9 clones). SF162 represents the HIV-1 strain SF-162 and SF162R represents a mixture of resistant strains obtained by selection of SF162 against the compound of Example 1. SF162R comprises a mixture of viral strains having protease genotypes of M461, F53L, L63P, A71V, N88D (2/3 clones); and M46I, F53L, L63P, A71V, N88D, Q92R (1/3 clones). 89-959 represents the HIV-1 strain 89-959 and 89-959R represents a mixture of resistant strains obtained by selection of 89-959 against the compound of Example 2. 89-959R comprises a mixture of viral strains having protease genotypes of N88S (4/5 clones); and D25N, T26A, D30N, D37N, R41K, G73D, R87K, N88S (1/4 clones). NL4 represents the HIV-1 strain HIV-1NL4-3. NL4(G48V) represents a strain having a synthetically generated site-directed mutation in the protease from glycine to valine at amino acid position number 48. […]

NL4(P34-003) = experiment: Viral isolate resistance assay per Markowitz et al., NL4(P34-003); type: cell-based, HIV-1; conditions: Human immunodeficiency virus 1; Table 11; selected against Example 9, 34 passages
Description: as §3

NL4(538/P7-AG) = experiment: Viral isolate resistance assay per Markowitz et al., NL4(538/P7-AG); type: cell-based, HIV-1; conditions: Human immunodeficiency virus 1; Table 10; NL4(P22-538) selected against Example 12, 7 passages
Description: as §1, with “NLA(P19-003) represents resistant strains obtained by selection of HIV-1^NL4-3 against the compound of Example 9 after 19 passages comprising protease genotype R8K, M46I. NL4(P34-003) represents resistant strains obtained by selection of HIV-1^NL4-3 against the compound of Example 9 after 34 passages comprising protease genotype R8K, M46I, L63P, A71V, L90M.” left out

NL4(R8Q,M46I) = experiment: Viral isolate resistance assay per Markowitz et al., NL4(R8Q,M46I); type: cell-based, HIV-1; conditions: Human immunodeficiency virus 1, read-out: Virus Isolate (EC50 nM) NL4(R8O, M46I)
Description: as §3

NL4(I84V) = experiment: Viral isolate resistance assay per Markowitz et al., NL4(I84V); type: cell-based, HIV-1; conditions: Human immunodeficiency virus 1, Table 7
Description: (§4) RF represents the HIV-1 strain HIV-LRF and RFR represents a mixture of resistant strains obtained by selection of RF against the compound of Example 1. […] RFR2 represents a mixture of resistant strains obtained by cloning RFR by three rounds of growth at limiting dilution. […] RFRR represents a mixture of resistant strains obtained by selection of RF against the compounds of Examples 1 and 2 and then cloning by three rounds of growth at limiting dilution. […] SF162 represents the HIV-1 strain SF-162 and SF162R represents a mixture of resistant strains obtained by selection of SF162 against the compound of Example 1. […] 89-959 represents the HIV-1 strain 89-959 and 89-959R represents a mixture of resistant strains obtained by selection of 89-959 against the compound of Example 2. […] NL4 represents the HIV-1 strain HIV-1NL4-3. NL4(G48V) represents a strain having a synthetically generated site-directed mutation in the protease from glycine to valine at amino acid position number 48. NL4(I84V) represents a strain having a synthetically generated site-directed mutation in the protease from isoleucine to valine at amino acid position number 84. NL4(R8Q,M46I) represents a strain having synthetically generated site-directed mutations in the protease from arginine to glutamine at amino acid position number 8 and methionine to isoleucine at amino acid position number 46.

HIV-1NL4-3 = experiment: microbe, parasite or virus in culture; type: cell-based; conditions: Human immunodeficiency virus 1, NL4
Description: as §4

NL4(P37-538) = experiment: Viral isolate resistance assay per Markowitz et al., NL4(P37-538); type: cell-based, HIV-1; conditions: Human immunodeficiency virus 1; Table 9; selected against Example 10, 37 passages; read-out: Virus Isolate (EC50 nM) NL4(P37-538)
Description: as §1
The viral isolate resistance results summarized in Tables 7-11 were generated according to the assay procedures described by Markowitz et al., Journal of Virology, vol. […]

NL4(P22-538) = experiment: Viral isolate resistance assay per Markowitz et al., NL4(P22-538); type: cell-based, HIV-1; conditions: Human immunodeficiency virus 1; Table 9; selected against Example 10, 22 passages; read-out: Virus Isolate (EC50 nM) NL4(P22-538)
Description: as §1, with “NLA(P19-003) represents resistant strains obtained by selection of HIV-1^NL4-3 against the compound of Example 9 after 19 passages comprising protease genotype R8K, M46I. NL4(P34-003) represents resistant strains obtained by selection of HIV-1^NL4-3 against the compound of Example 9 after 34 passages comprising protease genotype R8K, M46I, L63P, A71V, L90M.” left out

NL4(G48V) = experiment: Viral isolate resistance assay per Markowitz et al., NL4(G48V); type: cell-based, HIV-1; conditions: Human immunodeficiency virus 1, Table 7
Description: as §4

SMILES | EC50 (HIV-1RF) [ng/mL] | EC50 [1] [ng/mL] | EC50 (NL4(538/P24-AG)) [nM] | EC50 (NL4(538/524)) [nM] | EC50 (NLA(P19-003)) [nM] | EC50 (NL4(P34-003)) [nM] | EC50 (NL4(538/P7-AG)) [nM] | EC50 (NL4(R8Q,M46I)) [nM] | EC90 (NL4(I84V)) [nM] | EC90 (HIV-1NL4-3; Table 7, EC90, read-out: Virus Isolate (EC90 nM) NL4) [nM] | EC50 (HIV-1NL4-3; Table 8, read-out: Virus Isolate (EC50 nM) NL4) [nM] | EC50 (NL4(P37-538)) [nM] | EC50 (NL4(P22-538)) [nM] | EC90 (NL4(G48V)) [nM]
COc1ccc(S(=O)(=O)N(CC(C)C)C[C@@H](O)[C@H](Cc2ccccc2)NC(=O)[C@H](C)CS(C)(=O)=O)cc1 (relative stereo) [Example 4, [1S-[1R*(R*),2S*]]-N-[2-hydroxy-3-[N^1-(2-methylpropyl)-N-(4-methoxyphenylsulfonyl)amino]-1-(phenylmethyl)propyl]-2-methyl-3-(methylsulfonyl)propanamide] | 10 (≈ 18 nM) | 0.4 (≈ 0.721 nM) |  |  |  |  |  |  |  |  |  |  |  | 
COc1ccc(S(=O)(=O)N(CC(C)C)C[C@@H](O)[C@H](Cc2ccccc2)NC(=O)OCc2cncnc2)cc1 [Example 3, [2R-hydroxy-3-[[(4-methoxyphenyl)sulfonyl](2-methylpropyl)amino]-1S-(phenylmethyl)propyl]carbamic acid 5-pyrimidylmethyl ester] | 5 (≈ 9.21 nM) | 2 (≈ 3.69 nM) |  |  |  |  |  |  |  |  |  |  |  | 
CC(C)c1nc(CN(C)C(=O)N[C@H](C(=O)N[C@@H](Cc2ccccc2)C[C@H](O)[C@H](Cc2ccccc2)NC(=O)OCc2cncs2)C(C)C)cs1 [Example 10] |  |  | 6400 | 6400 | 400 | 400 | 6400 | 240 | 800 | 80 | 80 | 6400 | 1600 | 160
